Experimental data published in ChEMBL document CHEMBL1201862, “PubChem BioAssay data set” (2004).
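These data come from cells grown in 96-well plates and exposed to compound for 48 hours at five concentrations. GI50 marks 50% less growth.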 Active and inactive are the calls of the source. No stated cut-off is given here; in the data, active = GI50 up to about 1.1 µM and inactive = higher.

Tests used:
Experiment in all cases: NCI-60 cell line screen, 48 h
[1] = test system: SK-MEL-5
[2] = test system: COLO 205
[3] = test system: OVCAR-5
[4] = test system: A549
[5] = test system: CCRF-CEM
[6] = test system: UACC-62
[7] = test system: DU-145
[8] = test system: PC-3
[9] = test system: Malme-3M
[10] = test system: IGROV-1
[11] = test system: NCI-H460
[12] = test system: A498
[13] = test system: HCT-116
[14] = test system: MDA-MB-231
[15] = test system: RPMI-8226
[16] = test system: SK-MEL-2
[17] = test system: Hs-578T
[18] = test system: HCT-15
[19] = test system: SNB-75
[20] = test system: RXF 393
[21] = test system: SF-539
[22] = test system: UO-31
[23] = test system: SR
[24] = test system: NCI/ADR-RES
[25] = test system: UACC-257
[26] = test system: SW-620
[27] = test system: TK-10
[28] = test system: BT-549
[29] = test system: SN12C
[30] = test system: CAKI-1
[31] = test system: HOP-92
[32] = test system: KM12
[33] = test system: SNB-19
[34] = test system: MOLT-4
[35] = test system: HT-29
[36] = test system: U-251
[37] = test system: HL-60
[38] = test system: HCC 2998
[39] = test system: SK-OV-3
[40] = test system: 786-0
[41] = test system: OVCAR-8
[42] = test system: ACHN
[43] = test system: SK-MEL-28
[44] = test system: MCF7
[45] = test system: M14
[46] = test system: MDA-N
[47] = test system: T47D
[48] = test system: OVCAR-3
[49] = test system: SF-268
[50] = test system: SF-295
[51] = test system: NCI-H522
[52] = test system: EKVX
[53] = test system: MDA-MB-435
[54] = test system: K562
[55] = test system: LOX IMVI
[56] = test system: NCI-H226
[57] = test system: OVCAR-4
[58] = test system: NCI-H23
[59] = test system: HOP-62

NC(=O)SCCC(N)C(=O)O (centres undefined)
GI50 [1]: > 100 µM (inactive)
GI50 [2]: > 100 µM (inactive)
GI50 [3]: > 100 µM (inactive)
GI50 [4]: > 100 µM (inactive)
GI50 [5]: > 100 µM (inactive)
GI50 [6]: > 100 µM (inactive)
GI50 [7]: > 100 µM (inactive)
GI50 [8]: > 100 µM (inactive)
GI50 [9]: > 100 µM (inactive)
GI50 [10]: > 100 µM (inactive)
GI50 [11]: > 100 µM (inactive)
GI50 [12]: > 100 µM (inactive)
GI50 [13]: > 100 µM (inactive)
GI50 [14]: > 100 µM (inactive)
GI50 [15]: > 100 µM (inactive)
GI50 [16]: > 100 µM (inactive)
GI50 [17]: > 100 µM (inactive)
GI50 [18]: > 100 µM
GI50 [19]: > 100 µM (inactive)
GI50 [20]: > 100 µM (inactive)
GI50 [21]: > 100 µM (inactive)
GI50 [22]: > 100 µM (inactive)
GI50 [23]: > 100 µM (inactive)
GI50 [24]: > 100 µM (inactive)
GI50 [25]: > 100 µM (inactive)
GI50 [26]: > 100 µM (inactive)
GI50 [27]: > 100 µM (inactive)
GI50 [28]: > 100 µM (inactive)
GI50 [29]: > 100 µM (inactive)
GI50 [30]: > 100 µM (inactive)
GI50 [31]: > 100 µM (inactive)
GI50 [32]: > 100 µM (inactive)
GI50 [33]: > 100 µM (inactive)
GI50 [34]: > 100 µM (inactive)
GI50 [35]: > 100 µM (inactive)
GI50 [36]: > 100 µM (inactive)
GI50 [37]: > 81.3 µM (inactive)
GI50 [38]: > 100 µM (inactive)
GI50 [39]: > 100 µM (inactive)
GI50 [40]: > 100 µM (inactive)
GI50 [41]: > 100 µM (inactive)
GI50 [42]: > 100 µM (inactive)
GI50 [43]: > 100 µM (inactive)
GI50 [44]: > 100 µM (inactive)
GI50 [45]: > 100 µM (inactive)
GI50 [46]: > 100 µM (inactive)
GI50 [47]: > 100 µM (inactive)
GI50 [48]: > 100 µM (inactive)
GI50 [49]: > 100 µM (inactive)
GI50 [50]: > 100 µM (inactive)
GI50 [51]: > 100 µM (inactive)
GI50 [52]: > 100 µM (inactive)
GI50 [53]: > 100 µM (inactive)
GI50 [54]: > 100 µM (inactive)
GI50 [55]: > 100 µM (inactive)
GI50 [56]: > 100 µM (inactive)
GI50 [57]: > 100 µM (inactive)
GI50 [58]: > 100 µM (inactive)
GI50 [59]: > 100 µM (inactive)
